Source: patent EP4603105A1, “PHARMACEUTICAL COMPOSITION CONTAINING CYCLIC COMPOUND HAVING SELECTIVE KRAS INHIBITORY EFFECT AGAINST HRAS AND NRAS” (CHUGAI SEIYAKU KABUSHIKI KAISHA, priority 2022, dated 2024)
*1 amine or outer side, *2 acyl side, *3 side chain or, on linkers, in order; H or OH if unused. Where a SMILES comes first, the peptide text is derived from it. Bridges are numbered along the chain shown (N, C = ends). [ ]: non-standard residue; d: D form. The star is where a group is joined. hPhe(3,5-F2-4-CF3) = N[C@@H](CCc1cc(F)c(C(F)(F)F)c(F)c1)C(=O)O; X23 = O=C([C@H](Cc1ccc(C(F)(F)F)cc1)N(CC1CCCC1)[*:1])[*:2]; hPhe(3-Cl-4-CF3) = N[C@@H](CCc1ccc(C(F)(F)F)c(Cl)c1)C(=O)O; NPrPhe(4-CF3) = CCCN[C@@H](Cc1ccc(C(F)(F)F)cc1)C(=O)O; NMeAbu(4,4,4-F3) = CN[C@@H](CC(F)(F)F)C(=O)O; X17 = CN([C@@H](CCCCC=[*:3])C(=O)[*:2])[*:1]; dαMeAlg = C[C@](CC=[*:3])(N[*:1])C(=O)[*:2]; NMeGly(cPent) = CN[C@H](C(=O)O)C1CCCC1; Hyp = O=C(O)[C@@H]1C[C@@H](O)CN1; NMeD = CN[C@@H](CC(=O)O)C(=O)O; NMeL = CN[C@@H](CC(C)C)C(=O)O; Morpholide = C1CN(*)CCO1; NMeA = CN[C@@H](C)C(=O)O; Ac5c = NC1(C(=O)O)CCCC1; Aze = O=C(O)[C@@H]1CCN1; Sar = CNCC(=O)O

Legend:
HRAS wild-type protein = HRAS wild-type protein (Homo sapiens, UniProt P01112); experiment: Binding to HRAS by surface plasmon resonance (SPR), KD and KD ratio to KRAS
HRAS wild-type protein, sequence (P01112 whole entry): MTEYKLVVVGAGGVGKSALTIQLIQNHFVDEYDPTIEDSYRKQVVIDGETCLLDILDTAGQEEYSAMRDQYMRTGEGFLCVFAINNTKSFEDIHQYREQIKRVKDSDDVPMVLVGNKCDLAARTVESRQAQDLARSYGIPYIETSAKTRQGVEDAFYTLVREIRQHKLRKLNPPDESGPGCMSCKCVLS
Summary of the method: (§1)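 Measured at 30°C: SPR with GDP-loaded, E. coli-expressed biotin-Avi RAS captured (~100–300 RU), ascending 75 s compound injections, HBS pH 7.4 with GDP, MgCl2, 4% DMSO. KD from 1:1 fit.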

[1] = molecular target: GDP-bound NRAS wild-type protein (Homo sapiens, UniProt P01111); experiment: Binding to NRAS by surface plasmon resonance (SPR), KD and KD ratio to KRAS
GDP-bound NRAS wild-type protein, sequence (P01111 whole entry): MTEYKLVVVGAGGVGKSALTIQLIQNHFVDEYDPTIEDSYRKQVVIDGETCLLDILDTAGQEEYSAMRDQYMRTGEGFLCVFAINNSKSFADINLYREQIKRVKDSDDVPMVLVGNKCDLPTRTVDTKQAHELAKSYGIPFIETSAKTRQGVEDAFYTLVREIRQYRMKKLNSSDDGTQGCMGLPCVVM
Summary of the method: as §1

[2] = test system: human lung cancer strain NCI-H441; assay type: cell-based
Summary of the method: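 Signal came from […] measured per well once the reagent was added. Beforehand, cells were cultured at 37°C and 5% carbon dioxide on a compound series serially diluted in dimethyl sulfoxide.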

[3] = ratio of the KD value with respect to HRAS wild-type protein to the KD value with respect to KRAS
[4] = ratio of the KD value with respect to GDP-bound NRAS wild-type protein to the KD value with respect to KRAS
[5] = ratio of KD for HRAS wild-type protein to KD for KRAS
[6] = ratio of KD for GDP-bound NRAS wild-type protein to KD for KRAS

| IC50 [2] [nM] | SMILES | HRAS /KRAS (HRAS wild-type protein; [3]) | NRAS /KRAS [1, 4] | HRAS /KRAS (HRAS wild-type protein; [5]) | NRAS /KRAS [1, 6] | HRAS /KRAS (HRAS wild-type protein; ratio of KD value for HRAS wild-type protein to KD value for KRAS (SPR)) | NRAS /KRAS ([1]; ratio of KD value for GDP-bound NRAS wild-type protein to KD value for KRAS (SPR)) |
| --- | --- | --- | --- | --- | --- | --- | --- |
| 16.6 | CCO[C@@H]1C[C@H]2C(=O)NC3(CCC3)C(=O)N(C)[C@@H](C3CCCC3)C(=O)N(C)[C@H](C(=O)N(C)C)CC(=O)N(C)[C@H]3CCCCCc4ccc(cc4)C[C@@H](C(=O)N(C)CC(=O)N[C@@H](CCc4cc(F)c(C(F)(F)F)c(F)c4)C(=O)N2C1)N1CC/C=C\C[C@@H](C1=O)N(C)C(=O)CN(C)C(=O)[C@H]([C@@H](C)CC)NC3=O [PP2261] | A (a compound having 10 or more and less than 20 is denoted as A) | A (a compound having 10 or more and less than 20 is denoted as A) |  |  |  |  |
| 70.6 | CCO[C@@H]1C[C@H]2C(=O)NC3(CCC3)C(=O)N(C)[C@@H](C3CCCC3)C(=O)N(C)[C@H](C(=O)N(C)C)CC(=O)N(C)[C@@H](CC3CCCC3)C(=O)N[C@@H]([C@@H](C)CC)C(=O)N(C)CC(=O)N(C)[C@H]3C/C=C\CCN(C3=O)[C@@H](Cc3ccc(C)cc3)C(=O)N(C)CC(=O)N[C@@H](CCc3cc(C)c(C(F)F)c(Cl)c3)C(=O)N2C1 [PP2677] |  |  | A (a compound having 10 or more and less than 20 is denoted as A) | A (a compound having 10 or more and less than 20 is denoted as A) |  |  |
| 1.9 | CC[C@H](C)[C@@H]1NC(=O)[C@@H]2CCCCc3ccc(cc3)C[C@@H](C(=O)N(C)CC(=O)N[C@@H](CCc3ccc(C(F)(F)F)c(OC)c3)C(=O)N3CC4(CC4)C[C@H]3C(=O)NC3(CC(C)(C)C3)C(=O)N(C)[C@@H](C3CCCC3)C(=O)N(C)[C@H](C(=O)N(C)CC)CC(=O)N2C)N2CC/C=C\C[C@@H](C2=O)N(C)C(=O)CN(C)C1=O [PP3081] |  |  | B (a compound having 3 or more and less than 10 is denoted as B) | A (a compound having 10 or more and less than 20 is denoted as A) |  |  |
| 6.6 | CCO[C@@H]1C[C@H]2C(=O)NC3(CCC3)C(=O)N(C)[C@@H](C3CCCC3)C(=O)N(C)[C@H](C(=O)N(C)CC)CC(=O)N(C)[C@@H](C(C)C)C(=O)N[C@@H]([C@@H](C)CC)C(=O)N(C)CC(=O)N(C)[C@H]3C/C=C\CCN(C3=O)[C@@H](Cc3ccc(C(F)(F)F)cc3)C(=O)N(C)CC(=O)N[C@@H](CCc3cc(F)c(C(F)(F)F)c(F)c3)C(=O)N2C1 [PP1990] | A (a compound having 10 or more and less than 20 is denoted as A) | A (a compound having 10 or more and less than 20 is denoted as A) |  |  |  |  |
| 8.5 | CCCN(C)C(=O)[C@@H]1CC(=O)N(C)[C@@H](C2CCC2)C(=O)N[C@@H]([C@@H](C)CC)C(=O)N(C)CC(=O)N(C)[C@H]2C/C=C\CCN(C2=O)[C@@H](Cc2ccc(C(F)(F)F)cc2)C(=O)N(C)CC(=O)N[C@@H](CCc2ccc(C(F)(F)F)c(OC)c2)C(=O)N2C[C@@H](C)C[C@H]2C(=O)NC2(CCC2)C(=O)N(C)[C@@H](C2CCCC2)C(=O)N1C [PP2072] | A (a compound having 10 or more and less than 20 is denoted as A) | A (a compound having 10 or more and less than 20 is denoted as A) |  |  |  |  |

More lines, now with the values behind:

| SMILES | IC50 [2] [nM] | HRAS /KRAS (HRAS wild-type protein; [3]) | NRAS /KRAS [1, 4] | HRAS /KRAS (HRAS wild-type protein; [5]) | NRAS /KRAS [1, 6] | HRAS /KRAS (HRAS wild-type protein; ratio of KD value for HRAS wild-type protein to KD value for KRAS (SPR)) | NRAS /KRAS ([1]; ratio of KD value for GDP-bound NRAS wild-type protein to KD value for KRAS (SPR)) |
| --- | --- | --- | --- | --- | --- | --- | --- |
| CC[C@H](C)[C@@H]1NC(=O)[C@H](C)N(C)C(=O)C[C@@H](C(=O)N(C)C)N(C)C(=O)[C@H](C2CCCC2)N(C)C(=O)C2(CCC2)NC(=O)[C@@H]2CCCN2C(=O)[C@H](CCc2cc(F)c(C(F)(F)F)c(F)c2)NC(=O)CN(C)C(=O)[C@H](Cc2ccc(C(F)(F)F)cc2)N2CCCCC[C@@H](C2=O)N(C)C(=O)CN(C)C1=O [PP0470] | 51.9 | B (a compound having 3 or more and less than 10 is denoted as B) | B (a compound having 3 or more and less than 10 is denoted as B) |  |  |  |  |
| CCCN1C(=O)CN(C)C(=O)CN(C)C(=O)[C@H]([C@@H](C)CC)NC(=O)[C@@H]2CCCCC=CC[C@@](C)(NC(=O)[C@@H]3C[C@@H](OCC)CN3C(=O)[C@H](CCc3cc(F)c(C(F)(F)F)c(F)c3)NC(=O)CN(C)C(=O)[C@@H]1Cc1ccc(C(F)(F)F)cc1)C(=O)N(C)[C@@H](C1CCCC1)C(=O)N(C)[C@H](C(=O)N1CCOCC1)CC(=O)N2C [PP0902] ([X17]I[Sar][Sar][NPrPhe(4-CF3)][Sar][hPhe(3,5-F2-4-CF3)][Hyp](Et)[dαMeAlg][NMeGly(cPent)][NMeD]-Morpholide; staple 1-9; lactam N-11) | 72.6 |  |  | B (a compound having 3 or more and less than 10 is denoted as B) | A (a compound having 10 or more and less than 20 is denoted as A) |  |  |
| CC[C@H](C)[C@@H]1NC(=O)[C@H](CC(C)C)N(C)C(=O)C[C@@H](C(=O)N2CCOCC2)N(C)C(=O)[C@H](C2CCCC2)N(C)C(=O)C2(CCCC2)NC(=O)[C@@H]2CCCN2C(=O)[C@H](CCc2ccc(C(F)(F)F)c(Cl)c2)NC(=O)CN(C)C(=O)[C@H](Cc2ccc(C(F)(F)F)cc2)N(CC2CCCC2)C(=O)[C@@H]2CCN2C(=O)[C@H](C)N(C)C1=O [PP0110] ([NMeL]I[NMeA][Aze][X23][Sar][hPhe(3-Cl-4-CF3)]P[Ac5c][NMeGly(cPent)][NMeD]-Morpholide; lactam N-11) | 56.5 |  |  | B (a compound having 3 or more and less than 10 is denoted as B) | C (A compound having a KD ratio of 0.1 or more and less than 3 is denoted as C) |  |  |
| CCCN1C(=O)CN(C)C(=O)CN(C)C(=O)[C@H]([C@@H](C)CC)NC(=O)[C@H](CC(C)C)N(C)C(=O)C[C@@H](C(=O)N(C)C)N(C)C(=O)[C@H](CC(F)(F)F)N(C)C(=O)C2(CCCC2)NC(=O)[C@@H]2CCCN2C(=O)[C@H](CCc2cc(F)c(C(F)(F)F)c(F)c2)NC(=O)CN(C)C(=O)[C@@H]1Cc1ccc(C(F)(F)F)cc1 [PP0746] ([NMeL]I[Sar][Sar][NPrPhe(4-CF3)][Sar][hPhe(3,5-F2-4-CF3)]P[Ac5c][NMeAbu(4,4,4-F3)][NMeD]-NMe2; lactam N-11) | 35.4 | C (A compound having a KD ratio of 0.1 or more and less than 3 is denoted as C) | B (a compound having 3 or more and less than 10 is denoted as B) |  |  |  |  |
| CCO[C@@H]1C[C@H]2C(=O)NC3(CC(C)(C)C3)C(=O)N(C)[C@@H](C3CCCC3)C(=O)N(C)[C@H](C(=O)N(C)C)CC(=O)N(C)[C@@H](CC3CC3)C(=O)N[C@@H]([C@@H](C)CC)C(=O)N(C)CC(=O)N(C)[C@H]3C/C=C\CCN(C3=O)[C@@H](Cc3ccc(C(F)(F)F)cc3)C(=O)N(C)CC(=O)N[C@@H](CCc3cc(F)c(C(F)(F)F)c(F)c3)C(=O)N2C1 [PP1568] | 2.2 |  |  |  |  | A (a compound having 10 or more and less than 20 is denoted as A) | A (a compound having 10 or more and less than 20 is denoted as A) |
| C=CCCC[C@H]1C(=O)N[C@@H]([C@@H](C)CC)C(=O)N(C)CC(=O)N(C)[C@H]2CCCCN(C2=O)[C@@H](Cc2ccc(C(F)(F)F)cc2)C(=O)N(C)CC(=O)N[C@@H](CCc2cc(F)c(C(F)(F)F)c(F)c2)C(=O)N2C[C@H](OCC)C[C@H]2C(=O)N[C@](C)(CC=C)C(=O)N(C)[C@@H](C2CCCC2)C(=O)N(C)[C@H](C(=O)N2CCOCC2)CC(=O)N1C [PP0876] | 7.1 |  |  | C (A compound having a KD ratio of 0.1 or more and less than 3 is denoted as C) | C (A compound having a KD ratio of 0.1 or more and less than 3 is denoted as C) |  |  |
